Patent US12590118B2, “Salt and crystal form of steroid derivative regulator” (Shanghai Hansoh Biomedical Co., Ltd., priority 2019, dated 2026)
≈ marks a conversion by molar mass, not a printed value.

Key:
Format in all cases: physicochemical
[1] = Solubility experiment (thermodynamic solubility at 37° C.); settings: 24 hours
Method: The solubility of the free base and salt of the compound in water, Fasted State Simulated Gastric Fluid (FaSGF), Fasted State Simulated Intestinal Fluid (FaSSIF) and Fed State Simulated Intestinal Fluid (FeSSIF) was compared, so as to provide a basis for evaluating the druggability of the crystal form and salt.
About 2 to 3 mg of crystal forms I, II and III of the free base of Example 40 were weighed, suspended in 1 mL of Fasted State Simulated Gastric Fluid (FaSSGF), Fasted State Simulated Intestinal Fluid (FaSSIF), Fed State Simulated Intestinal Fluid (FeSSIF) and pure water respectively, and shaked for 24 hours. Thermodynamic solubility of the compound at 37° C. was determined using HPLC by external standard method.

[2] = Hygroscopicity experiment (DVS); settings: for hygroscopicity (in words): DVS; for Hygroscopicity (25° C./80% RH): DVS vapour sorption weight gain at 80% RH
Method: The hygroscopicity of crystal forms I, II and III of the free base of Example 40 under different relative humidity conditions was investigated, so as to provide a basis for screening of the crystal form and salt of the compound, production and storage.
10 to 15 mg of the free base of Example 40 was placed in the sample chamber of DVS. DVS was carried out, and the vapour sorption weight gain percentage of the compound at 80% RH was recorded at the same time.

[3] = Competitive experiment of different crystal forms of the free base; settings: 40° C.
Method: The stability among crystal forms I, II and III of the free base of Example 40 was investigated, so as to select the stable crystal form.
Multiple portions of about 20 mg of crystal forms I, II and III of the free base of Example 40 were accurately weighed, and mixed in pairs in equal amounts. Methyl tert-butyl ether and n-heptane were added respectively, and the resulting mixture was stirred at 40° C. for 7 days. The mixture was centrifuged at high speed, the supernatant was removed, and the resulting solid precipitate was vacuum dried in an oven at 40° C. and characterized by XRPD.

C[C@@H]1C[C@H](C(=O)Cn2ccc(C#N)n2)[C@@]2(C)CC[C@H]3[C@@H](CC[C@@H]4C[C@](C)(O)CC[C@@H]43)[C@H]12 [Crystal form II, 1-(2-((3R,5R,8R,9R,10S,13S,14S,15R,17S)-3-Hydroxy-3,13,15-trimethylhexadecahydro-1H-cyclopenta[a]phenanthren-17-yl)-2-oxoethyl)-1H-pyrazole-3-carbonitrile]
Solubility ([1]; FaSSGF): <1 µg/mL | Solubility ([1]; FaSSIF): 3.705 µg/mL (≈ 8.75 µM) | Solubility ([1]; FeSSIF): 18.495 µg/mL (≈ 43.7 µM) | Solubility ([1]; Water): <1 µg/mL | hygroscopicity (in words) [2]: no hygroscopicity | Hygroscopicity (25° C./80% RH) [2]: 0.03% | solubility in n-heptane (in words) [3]: almost insoluble

C[C@@H]1C[C@H](C(=O)Cn2ccc(C#N)n2)[C@@]2(C)CC[C@H]3[C@@H](CC[C@@H]4C[C@](C)(O)CC[C@@H]43)[C@H]12 [Crystal form III, 1-(2-((3R,5R,8R,9R,10S,13S,14S,15R,17S)-3-Hydroxy-3,13,15-trimethylhexadecahydro-1H-cyclopenta[a]phenanthren-17-yl)-2-oxoethyl)-1H-pyrazole-3-carbonitrile]
Solubility ([1]; FaSSGF): <1 µg/mL | Solubility ([1]; FaSSIF): 4.914 µg/mL (≈ 11.6 µM) | Solubility ([1]; FeSSIF): 28.166 µg/mL (≈ 66.5 µM) | Solubility ([1]; Water): <1 µg/mL | hygroscopicity (in words) [2]: no hygroscopicity | Hygroscopicity (25° C./80% RH) [2]: 0.10% | solubility in n-heptane (in words) [3]: almost insoluble
